Assay results from patent US20170003277A1 (priority 2015, published 2017).

Experiments:
[1] = format: in vivo, human
From the text: The Teva Patient Support Program in Mexico has an extensive database. Given that patients can switch between branded and purported generic GA, all patients are kept within the database and are provided with patient support services.
The number of relapses reported by patients in Teva's Patient Support Program on a monthly basis during the years 2012 and 2013 i. It is again clear that when Copaxone alone was in use (i.e. throughout 2012) the overall, as well as per-month number of relapses was lower than that reported when Probioglat was present in the market (i.e. throughout 2013).
These findings have identified significant differences that warrant further investigation, especially in light of the observed clinical effects of Probioglat's introduction. The Teva Patient Support Program in Mexico records numbers of adverse events, including during the years 2012 and 2013 (Table 31; FIG. 46), for which a similar number of patients were tracked (1618 patients in 2012; 1552 in 2013). Probioglat was first introduced in January 2013; subsequently, each time a patient's prescription was filled, it could be with either Probioglat or GA. […] The gene-expression differences observed herein warrant careful investigation, through studies comparing GA to candidate generics in meaningful settings, most comprehensively including clinical trials.

[2] = tested on: THP-1 human monocyte cell line; test: Microarray gene expression in THP-1 cells, Polimunol vs Copaxone, 6 hours (Example 9); format: cell-based
From the text: Based on previous power calculations (using the R package ssize.fdr), to detect differentially-expressed genes with a fold-change between treatments of as low as 1.3 with 80% power the experiment was designed to include six replicates of each condition. The order of sample processing was randomized with respect to treatment in order to avoid creating confounding batch effects.
RNA was extracted and expression profiled genome-wide using the Affymetrix U133 Plus 2.0 chip. Three batches of Copaxone® and one batch of Polimunol were comparatively tested in six replicates each. RNA processing was performed by Expression Analysis (NC, USA).
Differentially-expressed probesets were identified across conditions using linear models for microarray data (LIMMA). For comparing Copaxone® (“GA”) and purported generic, comparisons were corrected for mannitol control (i.e., [GA vs mannitol] was compared to [purported generic vs mannitol]). Probesets were filtered by calls of presence on the chip for the relevant samples in the comparison (to be considered present at a given timepoint, a probeset was required to have on average a call of present or marginal across the relevant samples at that timepoint). Probesets were mapped to genes using the U133 Plus 2.0 chip annotation from Affymetrix.

glatiramer acetate [Copaxone®]
Numbers of relapses reported ([1]; 2012, only branded GA marketed, 1618 patients): 8
Adverse Event Rate (per month) ([1]; human, in vivo): 10.4 per month
Numbers of adverse events reported ([1]; human, in vivo): 125
IL10RA expression relative to mannitol ([2]; adjusted p<2.8e-14): significantly upregulated
IL1RN expression relative to mannitol ([2]; adjusted p<2.8e-10): significantly upregulated
IL10 expression relative to mannitol ([2]; probeset called absent, p<0.029): nominally upregulated
